In brackets after ≈: the same amount, converted by molar mass. Where two headings read alike, the source gives them in different places.
Assays:
[1] = tested on: L1210 (mouse leukemia cells); assay: MTT assay, percentage of killing, L1210; format: cell-based; conditions: 24~48 hours
Description: (§1) 1. Method: 3-[4,5-dimethyl(thiazol-2-yl)-3,5-diphery] tetradium bromide (MTT) assay. 2. Culture medium: RPMI-1640 medium containing 2% calf serum 3. Apparatus: (1) CO2 incubator, Sherton USA; (2) 318MC Enzyme analysis machine, SANCO Equipments Company Ltd. 4. Conditions of the culture: Temp. 37° C.; Concentration of CO2: 4.7%, culture duration: 24˜48 hours.

[2] = tested on: Eca-109 (esophageal cancer cells); assay: MTT assay, percentage of killing, Eca-109; format: cell-based; conditions: for percentage of killing: MTT, 24~48 hours
Description: as §1

[3] = tested on: B16 (mouse melanocytoma cells); assay: MTT assay, percentage of killing, B16; format: cell-based; conditions: 24~48 hours
Description: as §1

[4] = tested on: A2780 (human ovary cancer cells); assay: MTT assay, percentage of killing, A2780; format: cell-based; conditions: 24~48 hours
Description: as §1

[5] = tested on: MGC (human stomach cancer cells); assay: MTT assay, percentage of killing, MGC; format: cell-based; conditions: 24~48 hours
Description: as §1

[6] = tested on: human stomach cancer cells MGC-803; assay: Nude mouse transplanted with human stomach cancer MGC-803, tumor growth inhibition; format: in vivo, BALB/cA nude mice
Description: Aim: To observe the growth inhibitory effect and the intensity of the effect of the compound of formula (I) in nude mouse transplanted with human stomach cancer cells MGC803.
Material: The lyophilized injection powder of the compound of formula (I), 15 mg/vial, diluted to the needed concentration by 0.9% saline before use.
Dosages: the dosages of the compound of formula (I) are 15, 10 and 5 mg/kg.
Animals: BALB/cA nude mice, female, 40˜45-days old, body weight is 18±2 g. The number of the animals in per group: negative control: 12; group with drug: 6.
Transplanted tumor: Human stomach cancer MGC-803 cells were transplanted into the nude mice as follows. Approximately half a million […] of the MGC-803 cells was injected subcutaneously (s.c.) into the mice. The tumors were used after breeding the mice for three generations.
Methods: Tumors in peak growth were cut into the sizes of around 1.5 mm^3. Under aseptic conditions the tumours were injected subcutaneously to the right axilla of the mouse. The size of the transplanted tumor is then measure and the animals randomly divided into several groups when the size of the tumor reaches 100-200 mm^3. The drug is administered by intravenous (i.v.) injection on the 1st and 6th days. Saline is administered as control. The size of the tumor is examined every two weeks together with the weight of the mouse. The tumor volume(TV) is calculated as:
Where, a and b represent length and width, respectively. The relative tumor volume (RTV) is calculated as: RTV=Vt/V0, where V0 is the volume of the tumor before administering the compound, Vt is the volume of the tumor after administering the compound. The index for evaluating the activity of anticancer is the relative growth rate of tumor (T/C), which is calculated as: […]
wherein, TRTV is the administering group; CRTV is the control group.
The standard for evaluating the treatment effect: T/C (%)>60% means no effect, T/C<=60% and p<0.05 means having a significant effect.

[7] = tested on: L1210, a kind of lymph leukemia cell; assay: Ex vivo treatment of L1210 cells, then i.p. injection into mice; format: in vivo, BDF-1 mice
Description: Control: 6 BDF-1 mice, male, administer to each mouse 1×10^8 L1210, a kind of lymph leukemia cell, by intraperitoneal (i.p.) injection, (without the compound of formula (I) treatment); results are shown in FIG. 11.
Ex vivo test group: 6 BDF-1 mice, male, administer to each mouse 1×10^8 L1210 cells by i.p. injection, wherein the L1210 were treated with the compound of formula (I). The method of treating cells ex vivo: The concentration of the lyophilized powder injection of the compound of formula (I) is 7.5 mg/ml. It was diluted to 150 ug/ml with saline solution. A volume of 67 ul of the diluted injection solution is mixed with 1.5 ml L1210 cells and 0.433 ml saline to obtain in each […] of L1210 cells to contain 5 ug the compound. The mixture is placed at the room temperature for two hours.

[8] = tested on: L1210 (mouse lymph leukemia cells); assay: Survival of mice transplanted with L1210; format: in vivo, BDF-1 mice; conditions: d 1, d 6, s.c.; for duration of survival (Ave): control 15
Description: Aims: To observe the effect of prolonging the survival of the compound of formula (I) on mice transplanted with L1210, a kind of mouse lymph leukemia cells.
Methods: 18 BDF-1 mice, male. L1210 (mouse lymph leukemia cells) were administered by i.p. injection, at the dose of 1×10^5 per mouse. Mice were divided into three groups randomly, with six animals per group. The test group was administered with the drug on day 1 and day 6 by subcutaneous (s.c.) injection. An equal volume of saline was administered in control animals.
Dosage: Test group 1: 50 mg/kg the lyophilized powder injection of the compound of formula (I) was administered by s.c. injection, • Test group 2: 25 mg/kg the lyophilized powder injection of the compound of formula (I) was administered by s.c. injection, • Test group 3: 12.5 mg/kg the lyophilized powder injection of the compound of formula (I) was administered by s.c. injection.

[9] = tested on: Coxsakie B3 virus; assay: in vitro; format: cell-based; conditions: for IC50: read-out: IC50 (half inhibitory concentration for the virus)
Description: Treatment of the sample: The sample was first dissolved in DMSO to appropriate concentration. The sample solutions were then diluted the samples in culture medium solution to obtain eight concentrations.
(§2) Methods: The Veo cells were cultured in 96-well plates. The cells were infected with Coxsakie B3 virus for 2 hours after 24 hours of incubation. The solution containing the virus was then discarded. The samples were then added into the wells at the concentrations with the appropriate controls. The cell pathological extent (CPE) was observed 36 hours later. The half inhibitory concentration (IC50) was calculated by using the method of Reed-Muench.
(§3) (1) “-” means that the sample has no anti Coxsakie B3 virus effect at the maximal dose with no toxicity. (2) TC50 indicates the half toxic concentration; IC50 indicates the half inhibitory concentration for the virus; SI indicates the selective index, calculated as the follow: SI=TC50/IC50

[10] = tested on: Veo cells; assay: Half toxic concentration in the antiviral test cells; format: cell-based
Description: as §2, §3

[11] = tested on: T. rubrum; assay: Germicidal effect, MTT assay, T. rubrum; format: cell-based
Description: (§4) Aims: To observe the germicidal effect of the compound of formula (I) on T. rubrum, T. mentagrophytes, C. albicans and B. subtilis. Method: […] Concentration of the samples were: (1) 2 mg/ml; (2) 1 mg/ml; (3) 0.5 mg/ml; (4) 0.25 mg/ml; Volume of the sample: 50 ul/well.

[12] = tested on: T. mentagrophytes; assay: Germicidal effect, MTT assay, T. mentagrophytes; format: cell-based
Description: as §4

[13] = tested on: C. albicans; assay: Germicidal effect, MTT assay, C. albicans; format: cell-based
Description: as §4

[14] = tested on: B. subtilis; assay: Germicidal effect, MTT assay, B. subtilis; format: cell-based
Description: as §4

[15] = tested on: T. rubrum, T. mentagrophytes, C. albicans and B. subtilis; assay: Germicidal effect, MTT assay, summary statement for all strains; format: cell-based; conditions: ≧50 μg/well; summary for the strains of Table 8
Description: as §4

O=C1CC[C@H](c2ccc(O)c3c2C(=O)C2OC2[C@H]3O)c2cccc(O)c21 (stereo partly shown) [compound of formula (I)]
percentage of killing ([1]; L1210, 312.5 ng/ml): 0%
percentage of killing ([1]; L1210, 625 ng/ml): 0%
percentage of killing ([1]; L1210, 1.25 ug/ml): 17.02%
percentage of killing ([1]; L1210, 2.5 ug/ml): 94.18%
percentage of killing ([1]; L1210, 5 ug/ml): 97.00%
percentage of killing ([2]; Eca-109, 312.5 ng/ml): 0%
percentage of killing ([2]; Eca-109, 625 ng/ml): 0%
percentage of killing ([2]; Eca-109, 1.25 ug/ml): 0%
percentage of killing ([2]; Eca-109, 2.5 ug/ml): 0%
percentage of killing ([2]; Eca-109, 5 ug/ml): 0.18%
effect on Eca-109 (in words) ([2]; Eca-109, MTT): no effect
percentage of killing ([3]; B16, 312.5 ng/ml): 1.06%
percentage of killing ([3]; B16, 625 ng/ml): 6.37%
percentage of killing ([3]; B16, 1.25 ug/ml): 0%
percentage of killing ([3]; B16, 2.5 ug/ml): 51.75%
percentage of killing ([3]; B16, 5 ug/ml): 72.53%
percentage of killing ([4]; A2780, 312.5 ng/ml): 0%
percentage of killing ([4]; A2780, 625 ng/ml): 35.31%
percentage of killing ([4]; A2780, 1.25 ug/ml): 46.5%
percentage of killing ([4]; A2780, 2.5 ug/ml): 73.08%
percentage of killing ([4]; A2780, 5 ug/ml): 90.91%
percentage of killing ([5]; 312.5 ng/ml): 0%
percentage of killing ([5]; 625 ng/ml): 40.98%
percentage of killing ([5]; 1.25 ug/ml): 42.32%
percentage of killing ([5]; 2.5 ug/ml): 64.37%
percentage of killing ([5]; 5 ug/ml): 85.52%
growth inhibitory effect (in words) ([6]; 15 mg/kg on day 1 and day 6, i.v., T/C<=60% and p<0.05 means significant effect): significant growth inhibitory effect
weight(g) final ([6]; 15 mg/kg, d 1, d 6, i.v., lyophilized powder, body weight of mice, final): 17.2 g
weight(g) Initial ([6]; 15 mg/kg, d 1, d 6, i.v., lyophilized powder, body weight of mice, initial): 18.3 g
T/C (%) ([6]; 15 mg/kg, d 1, d 6, i.v., relative growth rate of tumor, TRTV/CRTV x 100): 0.18%
RTV ([6]; 15 mg/kg, d 1, d 6, i.v., relative tumor volume Vt/V0): 0.02 ± 4.3
complete disappearance of tumor ([6]; 15 mg/kg, d 1, d 6, i.v., three weeks after the treatment, 6 mice): the tumor in one mouse disappeared completely
TV(mm^3) d 0 ([6]; 15 mg/kg, d 1, d 6, i.v., tumor volume before treatment): 102 ± 22 mm^3
TV(mm^3) d 21 ([6]; 15 mg/kg, d 1, d 6, i.v., tumor volume d 21): 2.2 ± 0.04 mm^3
duration of survival ([7]; 6 BDF-1 mice given 1×10^8 L1210 cells i.p., cells treated ex vivo with 5 ug compound, two hours, room temperature, controls died at 12-15 days): after 60 days
others (symptoms) ([7]; 6 BDF-1 mice given compound-treated L1210 cells i.p.): no symptom
killing of L1210 ex vivo (in words) ([7]; L1210 treated ex vivo with 5 ug compound, two hours, room temperature): killed completely
prolonging days ([8]; 12.5 mg/kg): 5 days
rate of prolonging (%) ([8]; 12.5 mg/kg): 33%
duration of survival (Ave) ([8]; 12.5 mg/kg): 20
prolonging days ([8]; 25 mg/kg): 7 days
rate of prolonging (%) ([8]; 25 mg/kg): 47%
duration of survival (Ave) ([8]; 25 mg/kg): 22
prolonging days ([8]; 50 mg/kg): 13 days
rate of prolonging (%) ([8]; 50 mg/kg): 87%
duration of survival (Ave) ([8]; 50 mg/kg): 28
selectivity ratio at 36 h ([9]; African green monkey, Veo cells infected with Coxsakie B3 virus, Coxsakie B3 virus in Veo cells, read-out: SI (selective index, TC50/IC50)): 2.88
IC50 ([9]; Coxsakie B3 virus in Veo cells, CPE after 36 hours, Reed-Muench): 8.56 µg/mL
TC50 (half toxic concentration) [10]: 24.7 µg/mL
Gemicidal effect (killing rate) ([11]; 12.5 μg/ml): 58%
Gemicidal effect (killing rate) ([11]; 25 μg/ml): 80%
Gemicidal effect (killing rate) ([11]; 50 μg/ml): 99%
Gemicidal effect (killing rate) ([11]; 100 μg/ml): 100%
Gemicidal effect (killing rate) ([12]; 12.5 μg/ml): 60%
Gemicidal effect (killing rate) ([12]; 25 μg/ml): 82%
Gemicidal effect (killing rate) ([12]; 50 μg/ml): 99.5%
Gemicidal effect (killing rate) ([12]; 100 μg/ml): 100%
Gemicidal effect (killing rate) ([13]; 12.5 μg/ml): 50%
Gemicidal effect (killing rate) ([13]; 25 μg/ml): 75%
Gemicidal effect (killing rate) ([13]; 50 μg/ml): 99%
Gemicidal effect (killing rate) ([13]; 100 μg/ml): 99.5%
Gemicidal effect (killing rate) ([14]; 12.5 μg/ml): 65%
Gemicidal effect (killing rate) ([14]; 25 μg/ml): 85%
Gemicidal effect (killing rate) ([14]; 50 μg/ml): 99%
Gemicidal effect (killing rate) ([14]; 100 μg/ml): 100%
antifungal effects [15]: 99.9%

NC(=O)c1ncn([C@@H]2O[C@H](CO)[C@@H](O)[C@H]2O)n1 [RBV, Ribavirin, reference compound]
IC50 ([9]; 36 h): 448 µg/mL (≈ 1830 µM)
